From patent US20100297692A1, “REACTION MEDIUM FOR DETECTING AND/OR IDENTTIFYING STAPHYLOCCOUS AUREUS” (BIOMERIEUX, priority 2007, published 2010)

Tests used:
Experiment in all cases: β-D-ribosidase substrates in Columbia agar, colored or fluorescent colonies
[1] = system: S. aureus (MRSA); format: cell-based, Staphylococcus aureus
Protocol: (§1) The media hereinafter were prepared in 200 ml of a Columbia agar base (Oxoid), in combination with the chromogenic β-D-ribosidase substrates. The various substrates and also the concentrations and the additives used in the media are described in Table 1 below:
(§2) The β-D-ribosidase substrates are solubilized in DMSO and added to the media so as to obtain the concentrations indicated in Table 1.
(§3) 191 bacterial strains were inoculated onto each of the media using a suspension at 0.5 MacFarland diluted to 1/1000. The dishes were incubated at 37° C. and then read.
(§4) The media were distributed into Petri dishes, then inoculated with approximately 100 000 CFU, then incubated at 37° C. for 48 h. The colonies formed were examined visually after incubation times of 18, 24 and 48 hours.
(§5) The stock collection of 191 strains comprised: […], 48 Staphylococcus spp, 61 Enterococcus spp and 3 alpha-hemolytic Streptococcus.

[2] = system: S. aureus (MSSA); format: cell-based, Staphylococcus aureus
Protocol: as §1, §2, §3, §4, §5

[3] = system: Coagulase-negative Staphylococci; format: cell-based, Staphylococcus spp; conditions: Coagulase-negative Staphylococci
Protocol: as §1, §2, §3, §4, §5

[4] = system: Micrococcus luteus; format: cell-based
Protocol: [The procedure below names another organism; the source lists this organism under the same test.] as §1, §2, §3, §4, §5

[5] = system: Enterococci; format: cell-based, Enterococcus spp
Protocol: as §1, §2, §3, §4, §5

[6] = system: Alpha-hemolytic streptococci; format: cell-based, alpha-hemolytic Streptococcus
Protocol: as §1, §2, §3, §4, §5

[7] = 400 mg/L + ammoniacal iron citrate 100 mg/l, 18 h
[8] = 400 mg/L + ammoniacal iron citrate 100 mg/l, 24 h
[9] = 400 mg/L + ammoniacal iron citrate 100 mg/l, 48 h

Compound: 5-Bromo-6-chloro-3-indoxyl-beta-D-riboside [Magenta-β-riboside]
- % of strains producing colored or fluorescent colonies ([1]; 100 mg/L, 18 h): 71%
- % of strains producing colored or fluorescent colonies ([1]; 100 mg/L, 24 h): 85%
- % of strains producing colored or fluorescent colonies ([1]; 100 mg/L, 48 h): 95%
- % of strains producing colored or fluorescent colonies ([2]; 100 mg/L, 18 h): 64%
- % of strains producing colored or fluorescent colonies ([2]; 100 mg/L, 24 h): 64%
- % of strains producing colored or fluorescent colonies ([2]; 100 mg/L, 48 h): 100%
- % of strains producing colored or fluorescent colonies ([3]; 100 mg/L, 18 h): 0%
- % of strains producing colored or fluorescent colonies ([3]; 100 mg/L, 24 h): 3%
- % of strains producing colored or fluorescent colonies ([3]; 100 mg/L, 48 h): 6%
- % of strains producing colored or fluorescent colonies ([4]; 100 mg/L, 18 h): 0%
- % of strains producing colored or fluorescent colonies ([4]; 100 mg/L, 24 h): 0%
- % of strains producing colored or fluorescent colonies ([4]; 100 mg/L, 48 h): 0%
- % of strains producing colored or fluorescent colonies ([5]; 100 mg/L, 18 h): 0%
- % of strains producing colored or fluorescent colonies ([5]; 100 mg/L, 24 h): 2%
- % of strains producing colored or fluorescent colonies ([5]; 100 mg/L, 48 h): 2%
- % of strains producing colored or fluorescent colonies ([6]; 100 mg/L, 18 h): 0%
- % of strains producing colored or fluorescent colonies ([6]; 100 mg/L, 24 h): 0%
- % of strains producing colored or fluorescent colonies ([6]; 100 mg/L, 48 h): 0%

Compound: Cc1cc(=O)oc2cc(O[C@@H]3O[C@H](CO)[C@@H](O)[C@H]3O)ccc12 [4-MU-β-riboside, 4-Methylumbelliferyl-beta-D-riboside]
- % of strains producing colored or fluorescent colonies ([1]; 50 mg/L, 18 h): 97%
- % of strains producing colored or fluorescent colonies ([1]; 50 mg/L, 24 h): 97%
- % of strains producing colored or fluorescent colonies ([1]; 50 mg/L, 48 h): 97%
- % of strains producing colored or fluorescent colonies ([2]; 50 mg/L, 18 h): 100%
- % of strains producing colored or fluorescent colonies ([2]; 50 mg/L, 24 h): 100%
- % of strains producing colored or fluorescent colonies ([2]; 50 mg/L, 48 h): 100%
- % of strains producing colored or fluorescent colonies ([3]; 50 mg/L, 18 h): 82%
- % of strains producing colored or fluorescent colonies ([3]; 50 mg/L, 24 h): 82%
- % of strains producing colored or fluorescent colonies ([3]; 50 mg/L, 48 h): 82%
- % of strains producing colored or fluorescent colonies ([4]; 50 mg/L, 18 h): 0%
- % of strains producing colored or fluorescent colonies ([4]; 50 mg/L, 24 h): 0%
- % of strains producing colored or fluorescent colonies ([4]; 50 mg/L, 48 h): 0%
- % of strains producing colored or fluorescent colonies ([5]; 50 mg/L, 18 h): 57%
- % of strains producing colored or fluorescent colonies ([5]; 50 mg/L, 24 h): 57%
- % of strains producing colored or fluorescent colonies ([5]; 50 mg/L, 48 h): 49%
- % of strains producing colored or fluorescent colonies ([6]; 50 mg/L, 18 h): 0%
- % of strains producing colored or fluorescent colonies ([6]; 50 mg/L, 24 h): 0%
- % of strains producing colored or fluorescent colonies ([6]; 50 mg/L, 48 h): 0%

Compound: OC[C@H]1O[C@@H](Oc2c[nH]c3cc(Cl)ccc23)[C@H](O)[C@@H]1O [Pink-β-riboside, 6-Chloro-3-indoxyl-beta-D-riboside]
- % of strains producing colored or fluorescent colonies ([1]; 100 mg/L, 18 h): 91%
- % of strains producing colored or fluorescent colonies ([1]; 100 mg/L, 24 h): 96%
- % of strains producing colored or fluorescent colonies ([1]; 100 mg/L, 48 h): 100%
- % of strains producing colored or fluorescent colonies ([1]; 200 mg/L, 18 h): 84%
- % of strains producing colored or fluorescent colonies ([1]; 200 mg/L, 24 h): 94%
- % of strains producing colored or fluorescent colonies ([1]; 200 mg/L, 48 h): 100%
- % of strains producing colored or fluorescent colonies ([2]; 100 mg/L, 18 h): 64%
- % of strains producing colored or fluorescent colonies ([2]; 100 mg/L, 24 h): 64%
- % of strains producing colored or fluorescent colonies ([2]; 100 mg/L, 48 h): 100%
- % of strains producing colored or fluorescent colonies ([2]; 200 mg/L, 18 h): 57%
- % of strains producing colored or fluorescent colonies ([2]; 200 mg/L, 24 h): 64%
- % of strains producing colored or fluorescent colonies ([2]; 200 mg/L, 48 h): 100%
- % of strains producing colored or fluorescent colonies ([3]; 100 mg/L, 18 h): 3%
- % of strains producing colored or fluorescent colonies ([3]; 100 mg/L, 24 h): 3%
- % of strains producing colored or fluorescent colonies ([3]; 100 mg/L, 48 h): 3%
- % of strains producing colored or fluorescent colonies ([3]; 200 mg/L, 18 h): 3%
- % of strains producing colored or fluorescent colonies ([3]; 200 mg/L, 24 h): 3%
- % of strains producing colored or fluorescent colonies ([3]; 200 mg/L, 48 h): 6%
- % of strains producing colored or fluorescent colonies ([4]; 100 mg/L, 18 h): 0%
- % of strains producing colored or fluorescent colonies ([4]; 100 mg/L, 24 h): 0%
- % of strains producing colored or fluorescent colonies ([4]; 100 mg/L, 48 h): 0%
- % of strains producing colored or fluorescent colonies ([4]; 200 mg/L, 18 h): 0%
- % of strains producing colored or fluorescent colonies ([4]; 200 mg/L, 24 h): 0%
- % of strains producing colored or fluorescent colonies ([4]; 200 mg/L, 48 h): 0%
- % of strains producing colored or fluorescent colonies ([5]; 100 mg/L, 18 h): 0%
- % of strains producing colored or fluorescent colonies ([5]; 100 mg/L, 24 h): 0%
- % of strains producing colored or fluorescent colonies ([5]; 100 mg/L, 48 h): 2%
- % of strains producing colored or fluorescent colonies ([5]; 200 mg/L, 18 h): 0%
- % of strains producing colored or fluorescent colonies ([5]; 200 mg/L, 24 h): 0%
- % of strains producing colored or fluorescent colonies ([5]; 200 mg/L, 48 h): 0%
- % of strains producing colored or fluorescent colonies ([6]; 100 mg/L, 18 h): 0%
- % of strains producing colored or fluorescent colonies ([6]; 100 mg/L, 24 h): 0%
- % of strains producing colored or fluorescent colonies ([6]; 100 mg/L, 48 h): 0%
- % of strains producing colored or fluorescent colonies ([6]; 200 mg/L, 18 h): 0%
- % of strains producing colored or fluorescent colonies ([6]; 200 mg/L, 24 h): 0%
- % of strains producing colored or fluorescent colonies ([6]; 200 mg/L, 48 h): 0%

Compound: Dihydroxyflavone-beta-D-riboside [DHF-β-riboside]
- % of strains producing colored or fluorescent colonies [1, 7]: 100%
- % of strains producing colored or fluorescent colonies [1, 8]: 100%
- % of strains producing colored or fluorescent colonies [1, 9]: 100%
- % of strains producing colored or fluorescent colonies [2, 7]: 100%
- % of strains producing colored or fluorescent colonies [2, 8]: 100%
- % of strains producing colored or fluorescent colonies [2, 9]: 100%
- % of strains producing colored or fluorescent colonies [3, 7]: 68%
- % of strains producing colored or fluorescent colonies [3, 8]: 68%
- % of strains producing colored or fluorescent colonies [3, 9]: 91%
- % of strains producing colored or fluorescent colonies [4, 7]: 0%
- % of strains producing colored or fluorescent colonies [4, 8]: 0%
- % of strains producing colored or fluorescent colonies [4, 9]: 0%
- % of strains producing colored or fluorescent colonies [5, 7]: 30%
- % of strains producing colored or fluorescent colonies [5, 8]: 30%
- % of strains producing colored or fluorescent colonies [5, 9]: 48%
- % of strains producing colored or fluorescent colonies [6, 7]: 0%
- % of strains producing colored or fluorescent colonies [6, 8]: 0%
- % of strains producing colored or fluorescent colonies [6, 9]: 0%
